What was measured:
[1] = system: Pseudomonas aeruginosa ATCC 10145 and Staphylococcus aureus ATCC 6538; assay: MBC of DBMAL, THPS and blends against aerobic bacteria, 1 hr and 2 hr contact time; format: cell-based; details: alone or in the blend; for MBC (ppm active) THPS: THPS concentration; for MBC (ppm active) DBMAL: DBMAL concentration
Procedure: (§1) The synergism of the biocides combination of the present invention was determined using the method described by Kull, F. C, et al. in Applied Microbiology 9:538-541 (1961).
Sterile salt solution (0.2203 g of CaCl2, 0.1847 g of MgSO4, and 0.2033 g of NaHCO3 in 1 L water, adjust pH to 7.4) was inoculated with approximately 10^7 CFU/mL of Pseudomonas aeruginosa ATCC 10145 and Staphylococcus aureus ATCC 6538.
Aliquots of the cell suspension were then treated with DBMAL, THPS, and combinations of these actives at selected concentrations.
After incubating at 37° C. for 1 hr, viable bacteria in each treated and untreated (control) cell suspensions were enumerated using a serial dilution method in Tryptic Soy Broth. The biocidal efficacy was determined by minimum biocide concentration for bacteria kill in the aliquots (MBC). Synergy Index was then calculated. Table 2 summarizes the MBC of each biocide and their blends, and the Synergy Index of each combination.
The same test procedure in Example 2 was used to evaluate the biocidal efficacy of DBMAL, THPS and their blends against aerobic bacteria in a 2-hr contact assay. Table 3 summarizes the MBC of each biocide and their blends, and the Synergy Index of each combination.

[2] = system: Desulfovibrio longus ATCC 51456; assay: MBC of DBMAL, THPS and blends against anaerobic bacteria, 24 hour contact time; format: cell-based; details: alone or in the blend, 40° C., 10^7 to 10^8 CFU/mL
Procedure: as §1
Inside an anaerobic chamber (Bactron anaerobic chamber), a deoxygenated sterile salt solution (3.1183 g of NaCl, 1.3082 mg of NaHCO3, 47.70 mg of KCl, 72.00 mg of CaCl2, 54.49 mg of MgSO4, 172.28 mg of Na2SO4, 43.92 mg of Na2CO3 in 1 L water, pH was adjusted to 7) was inoculated with Desulfovibrio longus ATCC 51456 to a final bacterial concentration of 10^7 to 10^8 CFU/mL. Aliquots of this cell suspension were then treated with DBMAL, THPS, and DBMAL/THPS blends, at selected active concentrations. After the treated cell suspensions were incubated at 40° C. for 24 hours, viable bacteria in each treated and untreated (control) cell suspensions were enumerated using a serial dilution method in Modified Baar's Medium (2.0 g of MgSO4, 5.7 g of Sodium citrate.2H2O, 1.0 g of CaSO4, 1.0 g of NH4Cl, 3.5 g of Sodium lactate, 1.0 g of Yeast extract, 0.5 g of K2HPO4, 0.1 g of Sodium Thioglycolate, 0.02 g of Fe(NH4)2(SO4)2, 20 g of NaCl in 1 L deionized water). The biocidal efficacy was determined by minimum tested biocide concentration for bacteria kill in the aliquots (MBC).
Table 1 summarizes the synergistic effect of each biocide and their blends, and the Synergy Index of each combination.

Row | Compound | MBC (ppm active) THPS ([1]; 2-hr contact assay) [ppm active] | MBC (ppm active) THPS ([1]; 37° C., 1 hr contact time) [ppm active] | MBC (ppm active) THPS ([2]; THPS concentration) [ppm active] | MBC (ppm active) DBMAL ([1]; 2-hr contact assay) [ppm active] | MBC (ppm active) DBMAL ([1]; 37° C., 1 hr contact time) [ppm active] | MBC (ppm active) DBMAL ([2]; DBMAL concentration) [ppm active]
1 | tetrakis(hydroxymethyl)phosphonium sulfate [0:1] | 29.6 | 100.0 | 50.0 |  |  | 
2 | NC(=O)C(Br)(Br)C(N)=O [1:0, 2,2-dibromomalonamide] |  |  |  | 77.8 | >100.0 | 200.0

Source: patent US9615574B2, “Compositions of dibromomalonamide and their use as biocides” (Dow Global Technologies LLC, priority 2013, dated 2017)
